TGI data for 17 molecules are collected here from PubChem BioAssay (NCI).

Holding throughout (test): NCI anticancer screen, dose series, 48 h
Experiment [1] concerns OVCAR-5 ovarian.
The test system of experiment [2] is HOP-92 NSCLC.
In experiment [3] the test system is SK-MEL-5 melanoma.
The test system of experiment [4] is A498 renal.
Experiment [5] concerns MALME-3M melanoma.
Experiment [6] concerns U251 CNS.
Experiment [7] concerns CAKI-1 renal.
For experiment [8], the system named is IGROV1 ovarian.
The subject of experiment [9] is COLO 205 colon.
For experiment [10], the system named is NCI-H226 lung.
In experiment [11] the test system is MDA-MB-231 breast.
In experiment [12] the test system is ACHN renal.
Experiment [13] has as its system 786-0 renal.
Experiment [14] deals with LOX IMVI melanoma.
Experiment [15] has as its system HOP-62 NSCLC.
Experiment [16] deals with MOLT-4 leukemia.
In experiment [17] the test system is RPMI-8226 leukemia.

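Results reflect a 48-hour exposure of cells in 96-well plates to compound at five concentrations. Definition used: TGI = concentration required for complete inhibition of growth.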

Take `CC1C2CCC3C(O)C2(CC(O)C2(O)C1CC(O)C2(C)C)CC3(C)O` (centres undefined): the TGI in experiment [1], in experiment [2], in experiment [3], in experiment [4], in [5] and in [6] was more than 100 µM in each case. Also, the TGI in experiment [7], in experiment [8], in experiment [9], in experiment [10], in experiment [11] and in [12] was more than 100 µM in each case. The TGI in experiment [13] and in experiment [14] was more than 100 µM throughout.

As to `Cc1c(O)c(OC2OC(CO)C(O)C(O)C2O)cc2c1CC[C@@H]1C2(C)C(=O)C[C@]2(C)[C@@H]([C@@](C)(O)C3CCC(C)(C)O3)[C@H](O)C[C@@]12C` (some centres undefined), the TGI in [1], in experiment [2], in experiment [3], in experiment [4], in experiment [5] and in experiment [6] was more than 100 µM each time. The TGI in [7], in experiment [8], in [9], in [10], in [15] and in experiment [11] was more than 100 µM each time. The TGI in experiment [12], in experiment [13], in experiment [14] and in experiment [16] was more than 100 µM in each case.

As to `COC(=O)CCC1=NCC(C)(C)O1`, the TGI in [1], in [3], in experiment [4], in experiment [5], in experiment [6] and in [7] was more than 10 µM in each case. Further, the TGI in experiment [8], in [17], in experiment [9], in experiment [10], in experiment [15] and in experiment [11] was more than 10 µM each time. The TGI in experiment [12], in [13], in experiment [14] and in [16] was more than 10 µM each time.

Regarding `COc1cccc2c1C1(O)C2CCCCCCCCCC12OCCCO2` (centres undefined), the TGI in experiment [1], in experiment [3], in experiment [4], in experiment [5], in experiment [6] and in [7] was more than 100 µM in each case. The TGI is more than 100 µM in experiment [8]; more than 80.1 µM in experiment [17]; more than 100 µM in [9]; more than 94.2 µM in experiment [10]; more than 100 µM in experiment [15]; more than 100 µM in experiment [11]. For the same molecule, the TGI in experiment [12] was more than 100 µM; in experiment [13], more than 100 µM; in experiment [14] it was more than 61.8 µM; in [16], more than 100 µM.

On to `CC(C)=NNc1snnc1C(N)=O`, for which the TGI in experiment [1], in experiment [3], in experiment [4], in [5], in experiment [6] and in [7] was more than 100 µM throughout. The TGI in [8], in experiment [17], in experiment [9], in [10], in [15] and in experiment [11] was more than 100 µM throughout. The TGI in experiment [12], in experiment [13], in experiment [14] and in [16] was more than 100 µM in each case.

Turning to `c1csc(-c2nccc3c2[nH]c2ccccc23)c1`, the TGI in experiment [1] came to 85.5 µM; in [2] it was 41.5 µM; in experiment [3] it was 31.4 µM; in [4], 33.9 µM; in experiment [5], 47.2 µM; in [6] it was 75.9 µM. Further, the TGI was 71.5 µM in experiment [7]; 37.4 µM in experiment [8]; 28.9 µM in experiment [9]; 32 µM in experiment [10]; 39.2 µM in experiment [15]; 48.1 µM in experiment [11]. The TGI is 73.7 µM in [12], 32.9 µM in experiment [13], 39.7 µM in experiment [14] and 51.5 µM in experiment [16].

As to `CC1=NN(c2nc(N)nc(CSc3cc(Cl)c(C)cc3S(N)(=O)=O)n2)C(C)(C)C1`, the TGI in [1], in experiment [3], in [4], in experiment [5], in experiment [6] and in experiment [7] was more than 10 µM throughout. Also, the TGI in experiment [8], in experiment [17], in experiment [9], in experiment [10], in experiment [15] and in experiment [11] was more than 10 µM in each case. Besides, the TGI in experiment [12], in [13], in experiment [14] and in experiment [16] was more than 10 µM each time.

Take `CSc1nc(Nc2ccccc2Cl)c2c(N)nn(C)c2n1`: the TGI in experiment [1], in experiment [3], in experiment [4], in experiment [5], in experiment [6] and in [7] was more than 100 µM each time. Besides, the TGI in experiment [8], in experiment [17], in experiment [9], in [10], in [15] and in experiment [11] was more than 100 µM each time. Moreover, the TGI in experiment [12] is 26 µM; in experiment [13] it was more than 100 µM; in experiment [14], more than 100 µM; in experiment [16], more than 100 µM.

Regarding `COc1cc2oc(=O)cc(C)c2c(OC)c1O`, the TGI in experiment [1] is more than 100 µM; in experiment [3] it was more than 100 µM; in experiment [4], 94.8 µM; in experiment [5] it was more than 100 µM; in experiment [6], more than 100 µM; in experiment [8], more than 100 µM. The TGI in experiment [17], in experiment [9], in experiment [10], in experiment [15], in experiment [11] and in [12] was more than 100 µM each time. The TGI in experiment [13], in [14] and in experiment [16] was more than 100 µM throughout.

On to `Cc1cc(C)c2c(n1)S(=O)(=O)N(CCCN1CCN(c3cccc(Cl)c3)CC1)/C(=C(\O)c1ccccc1)C2=O`, for which the TGI in experiment [1] was more than 100 µM; in [2], 77.4 µM; in experiment [3], 60.2 µM; in experiment [4], more than 100 µM; in experiment [5], more than 100 µM; in [6] it was more than 100 µM. Besides, the TGI was 62.2 µM in experiment [7]; more than 100 µM in experiment [8]; 36.9 µM in [9]; more than 100 µM in experiment [15]; more than 100 µM in experiment [11]; more than 100 µM in experiment [12]. Besides, the TGI in experiment [13] was more than 100 µM; in [14], more than 100 µM; in [16], 44.4 µM.

For the molecule `CC(=O)NC1C(OC(C)C(=O)NC(C(=O)NC(CCC(=O)NCCCNC2c3ccccc3Nc3cccc([N+](=O)[O-])c32)C(N)=O)C(C)C)C(O)C(CO)OC1(C)OCc1ccccc1` (centres undefined), the TGI in experiment [1] amounted to 9.44 µM; in experiment [3], 0.405 µM; in experiment [4], 4.11 µM; in experiment [5] it was 2.69 µM; in experiment [6], 3.22 µM; in [7], 3.05 µM. For the same molecule, the TGI in experiment [8] was found to be 3.2 µM; in experiment [17], 1.01 µM; in experiment [9], 7.77 µM; in experiment [10], 2.95 µM; in experiment [15] it was 5.87 µM; in experiment [11], 3.02 µM. Moreover, the TGI in [12] stood at 2.19 µM; in experiment [13] it was 2.35 µM; in experiment [14], 4.6 µM; in experiment [16] it was 2.6 µM.

With `Cn1c2c(c3ccccc31)CCN=C2C1CCCOC1=O` (centres undefined), the TGI in experiment [1], in experiment [2], in [3], in [4], in experiment [5] and in experiment [6] was more than 100 µM in each case. The TGI in experiment [7], in experiment [8], in experiment [9], in [10], in experiment [15] and in experiment [11] was more than 100 µM in each case. Further, the TGI in experiment [12], in experiment [13] and in [14] was more than 100 µM each time.

In the case of `O=C1c2c(ccc3c2CCC3)CC1Cc1ccc2c(c1)CCC2` (centres undefined), the TGI in experiment [1] was more than 100 µM; in experiment [3] it was 27.9 µM; in experiment [4], more than 100 µM; in experiment [5], more than 100 µM; in experiment [6], more than 100 µM; in experiment [8] it was more than 100 µM. In addition, the TGI in experiment [17] was 53.1 µM; in [9], 51.4 µM; in experiment [10] it was more than 100 µM; in experiment [15] it was 94.2 µM; in experiment [11], 49 µM; in experiment [12] it was more than 100 µM. The TGI in [13] is 99.1 µM; in [14] it was more than 100 µM; in experiment [16] it was 51.6 µM.

On to `Cc1csc(NNC(N)=O)n1`, for which the TGI in [1], in [2], in [3], in [6], in [7] and in [8] was more than 100 µM throughout. Further, the TGI in [9], in [10], in experiment [15], in [11], in experiment [12] and in experiment [13] was more than 100 µM throughout. Further, the TGI in experiment [14] and in experiment [16] was more than 100 µM in each case.

As to `C[C@@H]1[C@H](O)CC2=C(CC[C@@H](O)C2(C)C)[C@@]1(CO)CCc1ccoc1`, the TGI in [1], in experiment [2], in [3], in experiment [4], in [5] and in experiment [6] was more than 50 µM throughout. The TGI in [7], in experiment [8], in experiment [9], in [10], in [15] and in experiment [11] was more than 50 µM each time. For the same molecule, the TGI in experiment [12], in experiment [13], in experiment [14] and in experiment [16] was more than 50 µM each time.

As for `O=[N+]([O-])C1=Cc2cc(Cl)ccc2OC1c1cccc2ccccc12` (centres undefined), the TGI in experiment [1] stood at 4.05 µM; in experiment [2], 3 µM; in experiment [3], 2.64 µM; in experiment [4], 3.9 µM; in experiment [5] it was 2.91 µM; in experiment [6], 3.17 µM. In addition, the TGI in experiment [7] is 1.22 µM; in [8], 2.87 µM; in experiment [9], 6.71 µM; in experiment [10] it was 4.42 µM; in experiment [15] it was 2.55 µM; in [11] it was 6.23 µM. The TGI in experiment [12] amounted to 2.99 µM; in experiment [13] it was 1.37 µM; in experiment [14] it was 0.983 µM; in experiment [16], 0.817 µM.

As for `O/N=C(/C(Cl)=C(Cl)Cl)C(Cl)Cl`, the TGI is 49.4 µM in experiment [1]; 40.3 µM in [3]; more than 100 µM in experiment [4]; 77.9 µM in experiment [5]; 35.2 µM in experiment [6]; 87.3 µM in experiment [7]. The TGI was 44.6 µM in [8]; 50.2 µM in experiment [17]; 44.2 µM in [9]; more than 100 µM in experiment [10]; 46.9 µM in experiment [15]; 40 µM in [11]. Besides, the TGI came out at 32 µM in experiment [12], 34 µM in experiment [13], 37.3 µM in experiment [14] and 37.1 µM in experiment [16].
